Source: paper PMC11968506, “Toxicokinetics and analytical toxicology of the phenmetrazine-derived new psychoactive substance 3,4-methylenedioxyphenmetrazine studied by means of in vitro systems” (Archives of Toxicology, 2025)
Like-named read-outs stand apart in the source and are kept apart here.

What was measured:
CYP2C19 = CYP2C19 (Homo sapiens, UniProt P33261); assay: CYP inhibition cocktail assay in pHLM, CYP2C19 (omeprazole); conditions: inhibitor 20 µM, omeprazole 21 µM, pHLM 0.4 mg/mL, 15 min; control without inhibitor = 100%
Experimental: (§1) A modified dual-cocktail based method (Dinger et al. [2014b]) was used. Substrate cocktail A consisted of 8.9 µM dextromethorphan (CYP2D6), 86 µM testosterone (CYP3A4), 3.5 µM diclofenac (CYP2C9), and 12 µM phenacetin (CYP1A2). Substrate cocktail B included 30 µM bupropion (CYP2B6), 2 µM amodiaquine (CYP2C8) and 21 µM omeprazole (CYP2C19). Substrate concentrations were near their respective Michaelis–Menten constant (Km) values (Dinger et al. [2014a]) and all concentrations are final. Enzyme inhibition was investigated using a positive control, a test group, a control group, an interference group, and a negative control. In the test group, specific inhibitors were replaced by MDPM (20 µM). Instead of inhibitors, phosphate buffer was used in the control group. Enzymes were replaced with phosphate buffer in the negative control group. The interference group was incubated like the control group, but the reaction was stopped with 20 µM MDPM in acetonitrile, also containing 2.5 µM trimipramine-d3. All groups were incubated with a NADPH-regenerating system, consisting of 5 mM isocitrate, 2 U/mL isocitrate dehydrogenase, 5 mM Mg^2+, and 1.2 mM NADP^+. Further, substrate cocktail A or B, 90 mM phosphate buffer (pH 7.4), and 200 U/mL superoxide dismutase were added to each group. […] All groups were preincubated for 10 min at 37 °C. Then, pHLM (0.4 mg microsomal protein/mL) was added to each group except the negative control. Incubations were done for 15 min at 37 °C. Therefore, 50 µL of acetonitrile (− 20 °C) containing 2.5 µM trimipramine-d3 as internal standard was added. Incubations were done in triplicates and organic solvent in the incubation mixture was below 1% (Chauret et al. [1998]). Afterwards the samples were vortexed and centrifuged for 2 min at 18,407×g. 70 µL of the supernatant were transferred to autosampler vials and 10 µL were injected onto the LC-HRMS/MS system. Enzyme inhibition was evaluated by metabolite formation. […] The following settings were used: unpaired; one-tailed; significance level, 0.05; confidence intervals, 99%.

[1] = In vitro metabolism by pooled human liver S9 fraction; format: in vitro ADME; conditions: MDPM 25 µM, pHLS9 2 mg/mL, 60 and 360 min; tentative identification
Experimental: Incubations with pHLS9 were performed in accordance with previous publications and minor adjustments (Richter et al. [2017]). First, 25 μg/mL alamethicin (UGT reaction mix B), pHLS9 (2 mg microsomal protein/mL), 0.1 mM AcCoA, 2.3 mM acetylcarnitine, 8 U/mL carnitine acetyltransferase, 2.5 mM isocitrate, 0.8 U/mL isocitrate dehydrogenase, 100 U/mL superoxide dismutase, 0.6 mM NADP^+ and 2.5 mM Mg^2+ were preincubated for 10 min at 37 °C. Then, 2.5 mM UDP-glucuronic acid (UGT reaction mix A), 40 µM PAPS, 1.2 mM SAM, 1 mM DTT and 10 mM GSH were added. The reaction was started by adding the respective substrate MDPM, MDMA, or quetiapine (25 µM each). MDMA and quetiapine were incubated as positive controls. Negative control samples without enzymes and blank samples without substrates were incubated to identify not metabolically formed compounds and to confirm the absence of interfering compounds. […] Aliquots (50 µL) were transferred to a new reaction tube after 60 and 360 min. […] Samples were vortexed, stored at − 20 °C for 30 min, and centrifuged for 2 min at 18,407×g.

[2] = In vitro metabolism by HepaRG cells; format: in vitro ADME, human; conditions: MDPM 25 µM and 250 µM, tentative identification
Experimental: Cell incubations were performed in a monolayer assay as previously described (Richter et al. [2019]) and in accordance with the manufacturer’s instructions. HepaRG cells were thawed and resuspended in 13.5 mL (~ 740,000 cells/mL) thaw and seed medium at 37 °C. Thaw and seed medium consisted of Williams E medium, 100 U/mL penicillin, 100 µg/mL streptomycin, GlutaMAX and HPRG670 supplement. Cells were handled under sterile conditions using a laminar flow bench class II (Thermo Scientific, TF, Schwerte, Germany). Aliquots of 100 µL cell suspension were seeded on collagen-coated 96-well plates (~ 74,000 cells/well). Evaporation was minimized by filling the outer wells with 100 µL thaw and seed medium. Cells were preincubated for 4 h in an incubator (Binder, Tuttlingen, Germany) at 37 °C, 95% air humidity, and 5% CO2. After preincubation, 50 µL of the thaw and seed medium was replaced with 50 µL MDPM solution (25 µM and 250 µM final concentrations), followed by an incubation for 24 h at 37 °C, 95% air humidity, and 5% CO2 atmosphere. MDMA or quetiapine (25 µM and 250 µM final concentrations, respectively) were incubated as positive controls. All incubations were done in triplicates. Each well contained 0.5% (v/v) DMSO. […]

[3] = In vitro metabolism by pooled human liver microsomes; format: in vitro ADME; conditions: MDPM 25 µM, pHLM 1 mg/mL, 60 and 120 min; tentative identification
Experimental: Incubations with pHLM were in accordance with previous publications and minor modifications (Richter et al. [2017]). First, 2.5 mM isocitrate, 0.8 U/mL isocitrate dehydrogenase, 100 U/mL superoxide dismutase, 0.6 mM NADP^+, 2.5 mM Mg^2+ and pHLM (1 mg microsomal protein/mL) were preincubated for 10 min at 37 °C. […] Substances were incubated for 60 and 120 min at 37 °C. All concentrations are final concentrations, and incubations were done in duplicates. 50 µL aliquots were transferred to a new reaction tube at both timepoints. The reaction was stopped by adding 30 µL acetonitrile (− 20 °C) with 2.5 µM trimipramine-d3 as an internal standard. Negative control samples without enzymes and blank samples without substrates were performed to identify not metabolically formed compounds and to confirm the absence of interfering compounds.

CYP2D6 [4] = biological target: T1, CYP2D6 (Homo sapiens, UniProt P10635); assay: Monooxygenase mapping (ten human cDNA-expressed CYP isoforms and FMO3); format: in vitro ADME; set-up: Then, pHLM (0.4 mg microsomal protein/mL) was added to each group except the negative control; tissue Discovery Life Sciences; host or cells: pooled human liver microsomes, 25 donors; conditions: MDPM 25 µM, CYP 50 pmol/mL each or FMO3 0.25 mg protein/mL, 90 and 270 min
Experimental: As described elsewhere (Wagmann et al. [2016]) and with minor modifications, MDPM (25 µM) was incubated with 2.5 mM isocitrate, 0.8 U/mL isocitrate dehydrogenase, 100 U/mL superoxide dismutase, 0.6 mM NADP^+, 2.5 mM Mg^2+ and CYP1A2, CYP2A6, CYP2B6, CYP2C8, CYP2C9, CYP2C19, CYP2D6, CYP2E1, CYP3A4, CYP3A5 (50 pmol/mL each), or FMO3 (0.25 mg protein/mL) for 90 and 270 min at 37 °C. For incubations with CYP2A6 or CYP2C9, phosphate buffer was replaced with 90 mM Tris buffer, according to the manufacturer’s guideline. Thirty µL aliquots were taken at both timepoints. The reaction was stopped using 20 µL acetonitrile (− 20 °C) with 2.5 µM trimipramine-d3 as an internal standard. All incubations were done in duplicates and concentrations are final. […] Negative control samples without enzymes and blank samples without substrate were incubated to identify not metabolically formed compounds and to confirm the absence of interfering compounds.

[5] = ref Alberto-Silva et al. 2024; cited from earlier work
[6] = cited from earlier work
CYP2D6 [7] = biological target: T1, CYP2D6; assay: CYP inhibition cocktail assay in pHLM, CYP2D6 (dextromethorphan); conditions: inhibitor 20 µM, dextromethorphan, pHLM; versus control without inhibitor
Experimental: as §1

CYP2B6 = biological target: T2, CYP2B6 (Homo sapiens, UniProt P20813); assay: CYP inhibition cocktail assay in pHLM, CYP2B6 (bupropion); conditions: inhibitor 20 µM, bupropion 30 µM, pHLM 0.4 mg/mL, 15 min; control without inhibitor = 100%
T2 sequence (P20813 1-491): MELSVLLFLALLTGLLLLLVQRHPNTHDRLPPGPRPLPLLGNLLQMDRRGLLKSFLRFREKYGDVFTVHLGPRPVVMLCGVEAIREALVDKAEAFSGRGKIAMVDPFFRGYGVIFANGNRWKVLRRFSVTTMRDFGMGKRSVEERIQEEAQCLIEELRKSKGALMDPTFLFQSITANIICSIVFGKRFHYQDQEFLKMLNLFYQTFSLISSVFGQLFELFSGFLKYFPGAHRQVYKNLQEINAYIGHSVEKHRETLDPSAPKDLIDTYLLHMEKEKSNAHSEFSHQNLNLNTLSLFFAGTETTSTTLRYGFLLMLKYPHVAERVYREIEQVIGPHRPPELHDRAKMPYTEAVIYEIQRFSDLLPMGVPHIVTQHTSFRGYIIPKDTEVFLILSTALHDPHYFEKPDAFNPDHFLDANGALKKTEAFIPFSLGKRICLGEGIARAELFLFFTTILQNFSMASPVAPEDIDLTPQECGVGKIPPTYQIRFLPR
Experimental: as §1

CYP2C9 = CYP2C9 (Homo sapiens, UniProt P11712); assay: CYP inhibition cocktail assay in pHLM, CYP2C9 (diclofenac); conditions: inhibitor 20 µM, diclofenac 3.5 µM, pHLM 0.4 mg/mL, 15 min; control without inhibitor = 100%
Experimental: as §1

CYP2C8 [8] = conditions: 100 µM trimethoprim; ref Niemi et al. 2004; cited from earlier work
CYP2C8 [9] = biological target: T3, CYP2C8 (Homo sapiens, UniProt P10632); assay: CYP inhibition cocktail assay in pHLM, CYP2C8 (amodiaquine); conditions: inhibitor 100 µM, amodiaquine 2 µM, pHLM 0.4 mg/mL, 15 min; control without inhibitor = 100%
T3 sequence (P10632 1-490): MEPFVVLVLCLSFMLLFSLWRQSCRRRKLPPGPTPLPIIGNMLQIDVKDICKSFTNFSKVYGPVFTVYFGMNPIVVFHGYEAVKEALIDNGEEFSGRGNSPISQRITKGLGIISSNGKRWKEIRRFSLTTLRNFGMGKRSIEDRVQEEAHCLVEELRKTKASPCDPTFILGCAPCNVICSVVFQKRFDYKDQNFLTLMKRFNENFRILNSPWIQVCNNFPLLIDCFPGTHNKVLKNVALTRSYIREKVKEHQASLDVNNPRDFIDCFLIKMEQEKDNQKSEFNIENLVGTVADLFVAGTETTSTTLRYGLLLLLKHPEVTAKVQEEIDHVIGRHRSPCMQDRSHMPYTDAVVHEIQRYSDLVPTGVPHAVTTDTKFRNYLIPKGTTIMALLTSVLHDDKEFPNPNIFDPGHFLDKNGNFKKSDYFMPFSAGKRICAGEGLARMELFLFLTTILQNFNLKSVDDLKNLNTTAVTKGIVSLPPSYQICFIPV
Experimental: as §1

T1 sequence (P10635 whole entry, canonical isoform): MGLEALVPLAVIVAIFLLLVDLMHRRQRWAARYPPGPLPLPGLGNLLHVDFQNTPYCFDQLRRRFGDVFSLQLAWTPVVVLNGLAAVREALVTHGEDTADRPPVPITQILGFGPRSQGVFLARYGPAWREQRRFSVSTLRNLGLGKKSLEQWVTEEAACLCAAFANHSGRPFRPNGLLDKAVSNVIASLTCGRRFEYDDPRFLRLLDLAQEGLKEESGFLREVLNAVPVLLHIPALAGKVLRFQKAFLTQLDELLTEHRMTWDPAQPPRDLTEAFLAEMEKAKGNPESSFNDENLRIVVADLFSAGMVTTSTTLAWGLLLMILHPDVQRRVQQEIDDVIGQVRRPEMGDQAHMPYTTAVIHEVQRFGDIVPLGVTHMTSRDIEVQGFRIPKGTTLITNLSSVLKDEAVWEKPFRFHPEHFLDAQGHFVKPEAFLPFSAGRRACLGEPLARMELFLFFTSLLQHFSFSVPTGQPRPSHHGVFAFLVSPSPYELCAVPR
CYP2C19, sequence (P33261 whole entry): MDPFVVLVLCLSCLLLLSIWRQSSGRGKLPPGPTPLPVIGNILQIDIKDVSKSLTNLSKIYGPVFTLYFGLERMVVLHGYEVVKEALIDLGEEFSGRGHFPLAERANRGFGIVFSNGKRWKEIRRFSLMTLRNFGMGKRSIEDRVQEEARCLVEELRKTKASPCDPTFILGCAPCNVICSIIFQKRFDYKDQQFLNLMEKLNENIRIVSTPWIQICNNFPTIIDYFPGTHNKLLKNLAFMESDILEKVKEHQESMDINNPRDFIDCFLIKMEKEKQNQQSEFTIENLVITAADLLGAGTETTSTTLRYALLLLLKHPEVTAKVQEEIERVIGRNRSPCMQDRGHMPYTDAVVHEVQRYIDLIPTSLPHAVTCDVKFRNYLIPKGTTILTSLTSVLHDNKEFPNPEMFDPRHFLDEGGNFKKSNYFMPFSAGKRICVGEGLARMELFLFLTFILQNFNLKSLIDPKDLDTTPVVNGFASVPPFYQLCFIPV
CYP2C9, sequence (P11712 whole entry): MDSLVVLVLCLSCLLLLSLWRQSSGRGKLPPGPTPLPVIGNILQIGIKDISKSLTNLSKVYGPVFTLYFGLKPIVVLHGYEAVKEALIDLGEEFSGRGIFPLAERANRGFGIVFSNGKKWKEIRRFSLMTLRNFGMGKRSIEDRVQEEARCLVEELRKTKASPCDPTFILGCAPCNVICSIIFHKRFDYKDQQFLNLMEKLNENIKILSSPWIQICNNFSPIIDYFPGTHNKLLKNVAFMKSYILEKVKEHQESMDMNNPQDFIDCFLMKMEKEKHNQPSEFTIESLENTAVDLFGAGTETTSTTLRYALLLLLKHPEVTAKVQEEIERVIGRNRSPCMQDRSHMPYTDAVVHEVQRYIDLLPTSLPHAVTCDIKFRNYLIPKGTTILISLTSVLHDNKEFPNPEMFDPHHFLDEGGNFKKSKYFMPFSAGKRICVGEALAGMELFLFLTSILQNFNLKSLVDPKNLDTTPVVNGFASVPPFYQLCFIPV

OC(Cn1cncn1)(Cn1cncn1)c1ccc(F)cc1F [Fluconazole, fluconazole, reference compound]
CYP2C19 metabolite formation (CYP2C19): 48%

CC1NCCOC1c1ccc(O)c(O)c1 (stereo not drawn) [M1, Demethylenyl-MDPM]
metabolite detection in pHLS9 incubations [1]: could not be identified
metabolite detection in HepaRG incubations [2]: could not be identified
metabolite detection in pHLM incubations [3]: found
isozymes forming the demethylenyl metabolite (O-demethylenation of MDPM) (CYP2D6 [4]): only found in CYP2D6 incubations

COc1cc(C2OCCNC2C)ccc1O (stereo not drawn) [M2]
metabolite detection in pHLS9 incubations [1]: found

CNC(C)Cc1ccc2c(c1)OCO2 (stereo not drawn) [MDMA, 3,4-methylenedioxymethamphetamine]
in vitro half-life [5]: over 150 min
plasma protein binding (PPB) ([6]; ref Wan Aasim et al. 2017): 43–51%

C=C[C@H]1C[N@@]2CC[C@H]1C[C@@H]2[C@@H](O)c1ccnc2ccc(OC)cc12 [Quinidine, quinidine, reference compound]
decrease in CYP2D6 activity (inhibition) (CYP2D6 [7]): 99%

CN[C@H]1CC[C@@H](c2ccc(Cl)c(Cl)c2)c2ccccc21 [Sertraline, sertraline, reference compound]
CYP2B6 metabolite formation (CYP2B6): 24%

Nc1ccc(S(=O)(=O)Nc2ccnn2-c2ccccc2)cc1 [Sulfaphenazole, sulfaphenazole, reference compound]
CYP2C9 metabolite formation (CYP2C9): 9%

COc1cc(Cc2cnc(N)nc2N)cc(OC)c1OC [Trimethoprim, trimethoprim, reference compound]
maximum inhibition of CYP2C8 activity (CYP2C8 [8]): ≤ 40%
CYP2C8 metabolite formation (CYP2C8 [9]): 81%

CC(N)Cc1ccccc1 (stereo not drawn) [amphetamine]
plasma protein binding (PPB) ([6]; ref Franksson and Anggard 1970, Losacker et al. 2021): 20–30%

CC1NCCOC1c1ccccc1 (stereo not drawn) [phenmetrazine]
plasma protein binding (PPB) ([6]; ref Franksson and Anggard 1970): 20%
